# Experimental data: EP0830890A1, “Surfactants for use in liquid/supercritical CO2” (AIR PRODUCTS AND CHEMICALS, INC., priority 1996, dated 1998)
# Assays:
# Type in all cases: physicochemical
# [1] = Solubility in CO2 by cloud point determination in a variable volume view cell; parameters: Pressure Describing Cloud Point Determinations For Surfactant/CO2 Concentrations / Pressure Describing Cloud Point Determinations For Surfactant/CO2Concentrations: unit not given here
# Method: In the following examples, mixtures of acetylenic alcohols or diols and CO2 were prepared by adding the acetylenic alcohol or diol to a stainless steel variable volume view cell equiped with suitable relief devices, high pressure valves CO2 inlet and outlet and a sapphire window at one end. A high pressure syringe pump (High Pressure Products, HIP pump) was filled with liquid CO2 and used to quantitiatively add CO2 to the pressure vessel. The pressure vessel contained a magnetic stirrer and was stirred via a magnetic couple to a magnet located below the vessel.
# A weighed amount of surfactant (0.5-10 weight %) was placed inside the cell chamber in front of the piston. The cell window was attached and 10 cc ? s of CO2, was added to the cell. The surfactant was mixed in the CO2 using a magnetic stirring bar. The cell was mounted in horizontally and then immersed in a water bath. After allowing the high pressure cell to attain thermal equilibrium the pressure within the cell was varied using a floating piston. The pressure was changed to monitor the cloud point as being indicative of insolubility. The operator viewed the floating piston through the sapphire window using a suitable optic device, the onset of insolubility was taken when the translucent solution changed to an orange/brown color due to the Tindall light scattering of the insoluble droplets. The onset of insolubility was checked several times by varying the pressure using the high pressure syringe pump.
# A water bath was used to vary the temperature for each concentration. On completing the solubility studies at one concentration and one temperature series, a calibrated injector loop attached to the high pressure cell was filled with the surfactant via a syringe. Utilizing a six way valve to help inject this fixed amount of surfactant, the surfactant concentration within the high pressure cell was increased by a fixed increment. The solubility studies for this new CO2/surfactant concentration were measured at various temperatures in a similar manner to that previously described.
# [2] = Interfacial tension of a PEG 600 drop in CO2/surfactant solution via pendant drop technique; conditions: for Interfacial Tension IFT: PEG (600) drop, 2 weight % Surfynol/CO2 solution
# Description: Interfacial activity can be monitored using the 'pendant drop' technique, ("Chemistry of Interfaces" M.J.Jaycock & Parfitt, John Wiley and Sons, New York p49-51). This method is utilized to measure the interfacial tension between a pendant drop and a continuous phase that surrounds the drop. When carbon dioxide is used as the continuous media, special high pressure equipment with sapphire view ports is required to maintain a solution of CO2 and surfactant, and to study the change in shape of the pendant drop for interfacial tension calculations. A general procedure for these high pressure phase behavior measurements may be found in Langmuir, vol. 10 1994, pg 3536-3541, by K. Harrison, K. P. Johnston, J. Goveas and E. A. O ? Rear.
# Various ethoxylates of 2,4,7,9-tetramethyl-5-decyn-4,7-diol were used in the interfacial tension study. Table 3 gives the interfacial tension observed for ethoxylates of 2,4,7,9-tetramethyl-5-decyn-4,7-diol containing 20, 40, and 65 wt% ethylene oxide. The table also gives the interfacial tension of the polyethyleneglycol (PEG 600)drop within the pure CO2 media. […] It is interesting to note the actual reduction in interfacial tension. For a control PEG 600 drop at 2510 psi the interfacial tension was measured to be 3.39 dyne/cm (run #5in Table 3). […] This corresponds to lowering the interfacial tension by 0.54 dyne/cm, a 16% reduction. A surfactant/CO2 solution of 2 weight % (using the 40 wt% ethoxylated Surfynol surfactant) gave an interfacial tension of 1.57 dyne/cm. at a CO2 pressure of 4030 psi (run #33in Table 3). The corresponding PEG drop at 4093psi used as the control gave an interfacial tension of 1.92dyne/cm (run #18 in Table 3).
# [3] = PEG (MW=600) uptake by surfactant/CO2 mixture (phase behavior, cloud point); conditions: Wt% Surfactant in CO2 0.897%
# [4] = 2 weight % in CO2 at 2501 psi vs control PEG 600 drop at 2510 psi
compound,measurement,setting,value
"Ethoxylated 2,4,7,9-Tetramethyl-5-decyn-4,7-diol [AP-440]",Pressure Describing Cloud Point Determinations For Surfactant/CO2Concentrations,"[1]; Surfactant Concn. in CO2 0.6159 wt%, 25°C",1200
same,Pressure Describing Cloud Point Determinations For Surfactant/CO2Concentrations,"[1]; Surfactant Concn. in CO2 0.6159 wt%, 45°C",1750
same,Pressure Describing Cloud Point Determinations For Surfactant/CO2Concentrations,"[1]; Surfactant Concn. in CO2 1.2484 wt%, 25°C",1840
same,Pressure Describing Cloud Point Determinations For Surfactant/CO2Concentrations,"[1]; Surfactant Concn. in CO2 1.2484 wt%, 35°C",2610
same,Pressure Describing Cloud Point Determinations For Surfactant/CO2Concentrations,"[1]; Surfactant Concn. in CO2 1.8749 wt%, 60°C",3740
same,Pressure Describing Cloud Point Determinations For Surfactant/CO2Concentrations,"[1]; Surfactant Concn. in CO2 2.8386 wt%, 25°C",2580
same,Pressure Describing Cloud Point Determinations For Surfactant/CO2Concentrations,"[1]; Surfactant Concn. in CO2 2.8386 wt%, 45°C",4300
same,Pressure Describing Cloud Point Determinations For Surfactant/CO2Concentrations,"[1]; Surfactant Concn. in CO2 2.8386 wt%, 60°C",4510
same,Pressure Describing Cloud Point Determinations For Surfactant/CO2Concentrations,"[1]; Surfactant Concn. in CO2 4.0446 wt%, 25°C",2700
same,Pressure Describing Cloud Point Determinations For Surfactant/CO2Concentrations,"[1]; Surfactant Concn. in CO2 4.0446 wt%, 35°C",3740
same,Pressure Describing Cloud Point Determinations For Surfactant/CO2Concentrations,"[1]; Surfactant Concn. in CO2 4.0446 wt%, 45°C",4440
same,Pressure Describing Cloud Point Determinations For Surfactant/CO2Concentrations,"[1]; Surfactant Concn. in CO2 4.0446 wt%, 60°C",4670
same,reduction in interfacial tension,[2]; 2 weight % in CO2 at 4030 psi vs control PEG drop at 4093psi,18.2%
same,Interfacial Tension IFT,[2]; 3146 psi (217 bar),2.04 dyne/cm
same,Interfacial Tension IFT,[2]; 3522 psi (243 bar),1.96 dyne/cm
same,Interfacial Tension IFT,[2]; 3536 psi (244 bar),1.93 dyne/cm
same,Interfacial Tension IFT,[2]; 4028 psi (278 bar),1.56 dyne/cm
same,Interfacial Tension IFT,[2]; 4030 psi (278 bar),1.57 dyne/cm
same,Interfacial Tension IFT,[2]; 4568 psi (315 bar),1.38 dyne/cm
same,Interfacial Tension IFT,[2]; 4592 psi (317 bar),1.35 dyne/cm
same,Wt% of PEG (MW=600) uptake,[3]; 4040 psi 25°C,1.091%
same,Wt% of PEG (MW=600) uptake,[3]; 4550 psi 25°C,1.360%
same,Wt% of PEG (MW=600) uptake,[3]; 5220 psi 25°C,1.627%
"C#CC(C)(O)CC(C)C (stereo not drawn) [3,5-dimethyl-1-hexyn-3-ol]",Pressure Describing Cloud Point Determinations For Surfactant/CO2 Concentrations,"[1]; Surfactant Concn. in CO2 0.50 wt%, 35°C",1480
same,Pressure Describing Cloud Point Determinations For Surfactant/CO2 Concentrations,"[1]; Surfactant Concn. in CO2 0.50 wt%, 45°C",1800
same,Pressure Describing Cloud Point Determinations For Surfactant/CO2 Concentrations,"[1]; Surfactant Concn. in CO2 0.50 wt%, 55°C",2200
same,Pressure Describing Cloud Point Determinations For Surfactant/CO2 Concentrations,"[1]; Surfactant Concn. in CO2 1.50 wt%, 35°C",1530
same,Pressure Describing Cloud Point Determinations For Surfactant/CO2 Concentrations,"[1]; Surfactant Concn. in CO2 1.50 wt%, 45°C",1900
same,Pressure Describing Cloud Point Determinations For Surfactant/CO2 Concentrations,"[1]; Surfactant Concn. in CO2 1.50 wt%, 55°C",2260
same,Pressure Describing Cloud Point Determinations For Surfactant/CO2 Concentrations,"[1]; Surfactant Concn. in CO2 2.50 wt%, 35°C",1500
same,Pressure Describing Cloud Point Determinations For Surfactant/CO2 Concentrations,"[1]; Surfactant Concn. in CO2 2.50 wt%, 45°C",1860
same,Pressure Describing Cloud Point Determinations For Surfactant/CO2 Concentrations,"[1]; Surfactant Concn. in CO2 2.50 wt%, 55°C",2210
same,Pressure Describing Cloud Point Determinations For Surfactant/CO2 Concentrations,"[1]; Surfactant Concn. in CO2 5.00 wt%, 35°C",1380
same,Pressure Describing Cloud Point Determinations For Surfactant/CO2 Concentrations,"[1]; Surfactant Concn. in CO2 5.00 wt%, 45°C",1770
same,Pressure Describing Cloud Point Determinations For Surfactant/CO2 Concentrations,"[1]; Surfactant Concn. in CO2 5.00 wt%, 55°C",2120
same,Pressure Describing Cloud Point Determinations For Surfactant/CO2 Concentrations,"[1]; Surfactant Concn. in CO2 7.60 wt%, 35°C",1280
same,Pressure Describing Cloud Point Determinations For Surfactant/CO2 Concentrations,"[1]; Surfactant Concn. in CO2 7.60 wt%, 45°C",1680
same,Pressure Describing Cloud Point Determinations For Surfactant/CO2 Concentrations,"[1]; Surfactant Concn. in CO2 7.60 wt%, 55°C",2030
same,Pressure Describing Cloud Point Determinations For Surfactant/CO2 Concentrations,"[1]; Surfactant Concn. in CO2 10.20 wt%, 35°C",1200
same,Pressure Describing Cloud Point Determinations For Surfactant/CO2 Concentrations,"[1]; Surfactant Concn. in CO2 10.20 wt%, 45°C",1590
same,Pressure Describing Cloud Point Determinations For Surfactant/CO2 Concentrations,"[1]; Surfactant Concn. in CO2 10.20 wt%, 55°C",1950
same,solubility levels by weight to CO2,[1]; in CO2,10.2 % by weight
"Ethoxylated 2,4,7,9-Tetramethyl-5-decyn-4,7-diol [AP-420]",Pressure Describing Cloud Point Determinations For Surfactant/CO2Concentrations,"[1]; Surfactant Concn. in CO2 1.3646 wt%, 25°C",1410
same,Pressure Describing Cloud Point Determinations For Surfactant/CO2Concentrations,"[1]; Surfactant Concn. in CO2 1.3646 wt%, 35°C",2040
same,Pressure Describing Cloud Point Determinations For Surfactant/CO2Concentrations,"[1]; Surfactant Concn. in CO2 1.3646 wt%, 60°C",3060
same,Pressure Describing Cloud Point Determinations For Surfactant/CO2Concentrations,"[1]; Surfactant Concn. in CO2 2.6028 wt%, 35°C",2710
same,Pressure Describing Cloud Point Determinations For Surfactant/CO2Concentrations,"[1]; Surfactant Concn. in CO2 2.6028 wt%, 60°C",4040
same,Pressure Describing Cloud Point Determinations For Surfactant/CO2Concentrations,"[1]; Surfactant Concn. in CO2 2.6028 wt%, 65°C",4330
same,Pressure Describing Cloud Point Determinations For Surfactant/CO2Concentrations,"[1]; Surfactant Concn. in CO2 3.2104 wt%, 35°C",2990
same,Pressure Describing Cloud Point Determinations For Surfactant/CO2Concentrations,"[1]; Surfactant Concn. in CO2 3.2104 wt%, 60°C",3950
same,Pressure Describing Cloud Point Determinations For Surfactant/CO2Concentrations,"[1]; Surfactant Concn. in CO2 3.2104 wt%, 65°C",4330
same,Pressure Describing Cloud Point Determinations For Surfactant/CO2Concentrations,"[1]; Surfactant Concn. in CO2 3.8330 wt%, 25°C",1870
same,Pressure Describing Cloud Point Determinations For Surfactant/CO2Concentrations,"[1]; Surfactant Concn. in CO2 3.8330 wt%, 45°C",2860
same,Pressure Describing Cloud Point Determinations For Surfactant/CO2Concentrations,"[1]; Surfactant Concn. in CO2 3.8330 wt%, 65°C",3770
same,surfactant is soluble in CO2,[1]; in CO2,up to 4 wt%
same,lowering the interfacial tension,[2]; [4],0.54 dyne/cm
same,reduction in interfacial tension,[2]; [4],16%
same,Interfacial Tension IFT,[2]; 1984 psi (137 bar),3.45 dyne/cm
same,Interfacial Tension IFT,[2]; 2140 psi (148 bar),3.05 dyne/cm
same,Interfacial Tension IFT,[2]; 2498 psi (172 bar),2.75 dyne/cm
same,Interfacial Tension IFT,[2]; 2501 psi (173 bar),2.85 dyne/cm
same,Interfacial Tension IFT,[2]; 3007 psi (207 bar),2.32 dyne/cm
same,Interfacial Tension IFT,[2]; 3574 psi (246 bar),1.83 dyne/cm
